Test results as given in patent publication US20260240202A1, “MINERAL PROTEINATES FOR USE IN ANIMAL FEEDS, AND METHODS OF MAKING THEREOF” (Cargill, Incorporated, priority 2023, published 2026).
Marks after values point to notes of the source that are not given here.

Experiment: Chick Zn bioavailability trial: performance and tibia bone measures
Type: in vivo, New Hampshire×Columbian male and female chicks
Conditions: for Dry Bone Wt (mg/tibia) / Bone Ash (%) / Bone Ash Wt (mg/tibia) / Tibia Ash Zn Conc. (μg/g of ash): 14 d; for Dry Bone Wt (mg/tibia): right tibia
Description: New Hampshire×Columbian male and female chicks from the University of Illinois Poultry Field Laboratory were fed a nutritionally complete corn-soybean meal diet for the first 3 days post-hatching. The chicks were then switched to a Zn-deficient soy concentrate basal diet and fed this diet until 1600 h on D 7 post-hatching. After being subjected to overnight feed withdrawal, chicks were weighed, wing banded and allotted to pens so that each pen has a similar initial weight. Treatment additions were made at the expense of cornstarch. The trial diet can be seen in Table 6.
Five replicate groups of four chicks were fed one of 10 diets for 14 d (Day 8-22 post-hatch). Chicks were maintained in heated stainless-steel batteries and exposed to constant fluorescent light. The dietary treatments are listed below: • 1. Basal soy concentrate diet-Zn deficient (13-14 mg/kg Zn) • 2. As 1+3 mg/kg Zn from feed grade ZnSO4·7H2O • 3. As 1+6 mg/kg Zn from feed grade ZnSO4·7H2O • 4. As 1+9 mg/kg Zn from feed grade ZnSO4·7H2O • 5. As 1+3 mg/kg Zn from Organic Zn prototype MinPro-E75 • 6. As 1+6 mg/kg Zn from Organic Zn prototype MinPro-E75 • 7. As 1+9 mg/kg Zn from Organic Zn prototype MinPro-E75 • 8. As 1+3 mg/kg Zn from Organic Zn prototype MinPro-HSW • 9. As 1+6 mg/kg Zn from Organic Zn prototype MinPro-HSW • 10. As 1+9 mg/kg Zn from Organic Zn prototype MinPro-HSW
Chicks were weighed at the beginning and the end of the trial and weight gain calculated by subtracting the starting weight from the ending weight. Feed intakes were calculated via subtracting the feed refusals from the feed provided, with Zn intakes calculated based on Zn concentration in the diet and total feed consumed. Feed conversions were determined by using the feed consumed divided by weight gained.
Upon termination of the experiment, chicks and feeders were weighed and chicks were euthanized with CO2 gas. The right tibia from each chick was removed and pooled by replicate pen. The tibia was then autoclaved and cleaned to remove all adhering tissue, dried at 110° C. for 24 h, and then dry ashed in a muffle furnace. The ash was analyzed for Zn at the University of Missouri. Bioavailability of Zn was then determined by the slope-ratio method using multiple regression analysis. Weight gain, tibia Zn concentration and total tibia Zn were regressed on supplemental Zn intake from the Zn sources and the bioavailability of the Zn in the Zn-protein sources was calculated relative to the Zn in ZnSO4·7H2O.

## O.O.O.O.O.O.O.O=S(=O)([O-])[O-].[Zn+2] [ZnSO4, ZnSO4·7H2O]
3 mg/kg supplemental Zn in Zn-deficient basal diet
  Dry Bone Wt (mg/tibia): 1012^e mg/tibia
3 mg/kg supplemental Zn
  Bone Ash (%): 42.8^bcd %
  Bone Ash Wt (mg/tibia): 433^de mg/tibia
  Tibia Ash Zn Conc. (μg/g of ash): 79.16^ef μg/g of ash
6 mg/kg supplemental Zn in Zn-deficient basal diet
  Dry Bone Wt (mg/tibia): 1104^bdc mg/tibia
6 mg/kg supplemental Zn
  Bone Ash (%): 43.4^abcd %
  Bone Ash Wt (mg/tibia): 478^bc mg/tibia
  Tibia Ash Zn Conc. (μg/g of ash): 88.98^cd μg/g of ash
9 mg/kg supplemental Zn in Zn-deficient basal diet
  Dry Bone Wt (mg/tibia): 1176^ab mg/tibia
9 mg/kg supplemental Zn
  Bone Ash (%): 43.8^ab %
  Bone Ash Wt (mg/tibia): 515^ab mg/tibia
  Tibia Ash Zn Conc. (μg/g of ash): 101.2^ab μg/g of ash
Zinc inclusion at 3 mg/kg and 6 mg/kg
  Feed efficiency: approximately 560 g/kg of feed consumed
